Experimental findings from patent publication US10517867B2, “Posaconazole derivative, pharmaceutical composition and use thereof” (priority 2016, dated 2019) are described below.

Data set [1] can be described thus: Determination of solubility in deionized water (HPLC, external standard). The note with it: 25 °C, water, thermodynamic from solid.
Data set [2] is described as follows: Pharmacokinetics after single intravenous administration to rats. Type of data set: in vivo, SD rats. To be noted: posaconazole in saline solution as a control, tail vein. Here is the method: Administration amount: 2.5 mg/kg (calculated as posaconazole)
Administration volume: 2.5 ml/kg
Drug concentration: 1 mg/mL
Administration vehicle: normal saline
Administration route: tail vein injection
Experimental animals: SD rats, SPF grade, weighing 180-220 g, equal amount of male and female. Rats were randomly divided into groups of 6 with 3 males and 3 females.
Experimental protocol: blood samples were collected at different time points after tail vein administration and plasma posaconazole concentrations were measured.

Data set [3] has as its system Aspergillus fumigatus AF293. Briefly: Lung Aspergillus fumigatus infection in immunosuppressed mice, intragastric administration. To be noted: mouse lung tissue, seven days later; 20 mg/kg intragastric once daily for 5 days; mean ± SD.
Description: Aspergillus fumigatus AF293, from the Guangdong Provincial Microbial Culture Collection Center.
ICR male mice were injected intraperitoneally with cyclophosphamide 150 mg/kg and injected subcutaneously with dexamethasone 150 mg/kg for 10 consecutive days. At the same time, the blood was taken to measure the changes of peripheral white blood cells and neutrophils, and mice with neutrophils consistently lower than 100/μl were selected as successfully immunosuppressed mice. Immediately after the last injection, the mice were anesthetized with ethyl ether, and mice were transferred from the initial state of excitement to inhibition. After their bodies were relaxed, the mice were immediately taken. Left hand was used to grasp the mouse to make it stand upright, the middle finger pressed the mouth so that it could breath only with the nose, and the ring finger gently pressed the abdomen to move the diaphragm muscle upward. 30 μl of conidia suspension (Aspergillus fumigatus AF293, 3×10^6 conidia) was sent to the nostrils of the anesthetized mice by a micropipette to allow spontaneous inhalation. After the mouse returned to normal breathing, it was returned to the cage. […] Seven days later, the mice were sacrificed and their lung tissues were taken to observe the fungal loads of Aspergillus fumigatus in the lungs of the mice.
Data set [4] concerns Candida albicans ATCC10231. Nature of the data set: Candida albicans vaginitis in mice, intravenous administration. The note with it: logarithm of the CFU values, mean ± SD of 20 mice.
The test system of data set [5] is Candida albicans ATCC10231. Nature of the data set: Systemic fungal infection in mice, intragastric administration. In kind it is in vivo, ICR mice. The note with it: Candida albicans, ATCC10231, po.
Data set [6] has as its system Aspergillus Fumigutus (AF) strains. Nature of the data set: Aspergillus fumigatus keratitis in rats, intravenous administration. To be noted: 10 mg/kg tail vein once daily for 5 days; mean ± SD of 10 rats.
Data set [7] has as its system Candida albicans ATCC10231. Briefly: Candida albicans vaginitis in mice, intragastric administration. In kind it is in vivo, KM mice. The note with it: logarithm of the CFU values, mean ± SD of 20 mice.
Data set [8] relates to Aspergillus fumigatus AF293. Nature of the data set: Lung Aspergillus fumigatus infection in immunosuppressed mice, intravenous administration. To be noted: for responders at 20 mg/kg: Aspergillus fumigatus, AF293, in Mus musculus, iv.
Description: ICR male mice were injected intraperitoneally with cyclophosphamide 150 mg/kg and injected subcutaneously with dexamethasone 150 mg/kg for 10 consecutive days. At the same time, the blood was taken to measure the changes of peripheral white blood cells and neutrophils, and mice with neutrophils consistently lower than 100/μl were selected as successfully immunosuppressed mice. Immediately after the last injection, the mice were anesthetized with ethyl ether, and mice were transferred from the initial state of excitement to inhibition. After their bodies were relaxed, the mice were immediately taken. Left hand was used to grasp the mouse to make it stand upright, the middle finger pressed the mouth so that it could breath only with the nose, and the ring finger gently pressed the abdomen to move the diaphragm muscle upward. 30 μl of conidia suspension (Aspergillus fumigatus AF293, 3×10^6 conidia) was sent to the nostrils of the anesthetized mice by a micropipette to allow spontaneous inhalation. After the mouse returned to normal breathing, it was returned to the cage. […] The death of the mice was observed and the survival time was recorded. Seven days later, the mice were sacrificed and their lung tissues were taken to observe the fungal loads of Aspergillus fumigatus in the lungs of the mice.
Data set [9] in a line: In vitro metabolic stability in human intestine S9. The note with it: human; 37° C., 10 μM compound, 1 mg/mL S9, NADPH regeneration system; read-out: Human intestine S9 T1/2. Type of data set: in vitro ADME. The gist of the method: (§1)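 Human or rat plasma, preincubated 5 min at 37 °C, or intestinal S9 at 37 °C, spiked from 1 mM stock; triplicates sampled at 1, 2, 5, 15 and 30 min into cold internal standard. HPLC quantitation; half-life by non-compartmental analysis.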

Data set [10] can be described thus: physchem. To be noted: 25 °C, water, thermodynamic from solid.
Data set [11] in a line: In vitro metabolic stability in rat intestine S9. In kind it is in vitro ADME. The note with it: rat, pH 7.4; 37° C., 10 μM compound, 1 mg/mL S9, NADPH regeneration system; read-out: Rat intestine S9 T1/2. The gist of the method:
as §1

Data set [12] can be described thus: In vitro metabolic stability in rat plasma. In kind it is in vitro ADME. The note with it: rat, plasma, 37° C., 10 μM compound, read-out: Rat plasma T1/2. The gist of the method: as §1
Data set [13] can be described thus: In vitro metabolic stability in human plasma. Type of data set: in vitro ADME. The note with it: human, plasma, 37° C., 10 μM compound, read-out: Human plasma T1/2. The method, boiled down:
as §1

Setting [14] is: 24 h, read-out: survival rate of mice, day 1, 20 mg/kg intragastric once daily for 5 days, day 1.
The mark [15] stands for this setting: 48 h, read-out: survival rate of mice, day 2, 20 mg/kg intragastric once daily for 5 days, day 2.
[16] abbreviates: 72 h, read-out: survival rate of mice, day 3, 20 mg/kg intragastric once daily for 5 days, day 3.
[17] abbreviates: 96 h, read-out: survival rate of mice, day 4, 20 mg/kg intragastric once daily for 5 days, day 4.
[18] abbreviates: 120 h, read-out: survival rate of mice, day 5, 20 mg/kg intragastric once daily for 5 days, day 5.
Where [19] appears, read: 144 h, read-out: survival rate of mice, day 6, 20 mg/kg intragastric once daily for 5 days, day 6.
The mark [20] stands for this setting: 168 h, read-out: survival rate of mice, day 7, 20 mg/kg intragastric once daily for 5 days, day 7.

Read-outs that look alike come from different tables or passages of the source.

By solubility is commonly meant the concentration that dissolves in the medium under given conditions. `CC[C@@H]([C@H](C)O)n1ncn(-c2ccc(N3CCN(c4ccc(OC[C@@H]5CO[C@@](Cn6cncn6)(c6ccc(F)cc6F)C5)cc4)CC3)cc2)c1=O` [Posaconazole, posaconazole]: the solubility at 30 min in [1] was < 1 mg/mL. For the same molecule, in data set [2], the plasma posaconazole detection result was “not detected”.

For the molecule `CC[C@@H]([C@H](C)O)n1ncn(-c2ccc(N3CCN(c4ccc(OC[C@@H]5CO[C@@](Cn6c[n+](C(C)OC(=O)N(C)c7ccccc7COC(=O)[C@@H](N)CCCN)cn6)(c6ccc(F)cc6F)C5)cc4)CC3)cc2)c1=O` (stereo partly shown) [ST0008], the lung fungal load in [3] is 3.49 ± 0.64 10^4 CFU/ml; in data set [8] (mouse lung tissue, seven days later, 20 mg/kg tail vein once daily for 5 days, mean ± SD) it was 2.07 ± 0.42 10^4 CFU/ml. The “vaginal fungal load of mice, day 5” value in data set [4] (20 mg/kg tail vein once a day for 5 days, day 5 after infection) stood at 3.86 ± 0.21; in data set [7] (20 mg/kg intragastric once a day, day 5) it was 4.34 ± 0.47. For the same molecule, the “vaginal fungal load of mice, day 3” value in data set [4] (20 mg/kg tail vein once a day, day 3 after infection) is recorded as 4.05 ± 0.25; in [7] (20 mg/kg intragastric once a day, day 3), 4.21 ± 0.32. The responders at 20 mg/kg was 100% in [5] (setting [14]); 90% in data set [5] (setting [15]); 90% in [5] (setting [16]); 80% in [5] (setting [17]); 80% in data set [5] (setting [18]); 60% in data set [5] (setting [19]). Moreover, the responders at 20 mg/kg in data set [5] (setting [20]) came out at 60%; in [8] (24 h, read-out: survival rate of mice, day 1, 20 mg/kg tail vein once daily for 5 days, day 1) it was 100%; in data set [8] (48 h, read-out: survival rate of mice, day 2, 20 mg/kg tail vein once daily for 5 days, day 2), 100%; in data set [8] (72 h, read-out: survival rate of mice, day 3, 20 mg/kg tail vein once daily for 5 days, day 3) it was 100%; in data set [8] (96 h, read-out: survival rate of mice, day 4, 20 mg/kg tail vein once daily for 5 days, day 4) it was 90%; in data set [8] (120 h, read-out: survival rate of mice, day 5, 20 mg/kg tail vein once daily for 5 days, day 5) it was 80%. Also, the responders at 20 mg/kg in [8] (144 h, read-out: survival rate of mice, day 6, 20 mg/kg tail vein once daily for 5 days, day 6) is 80%; in data set [8] (168 h, read-out: survival rate of mice, day 7, 20 mg/kg tail vein once daily for 5 days, day 7), 70%. Also, the “Amount of active fungi in cornea at day 7” value in data set [6] is 2.59 ± 0.37 10^3 CFU/ml. Also, in [1], the solubility at 30 min is > 50 mg/mL. Besides, the “vaginal fungal load of mice, day 15” value in data set [7] (20 mg/kg intragastric once a day for 15 days, day 15) was determined as 2.68 ± 0.18. Moreover, in data set [7] (20 mg/kg intragastric once a day, day 7), the “vaginal fungal load of mice, day 7” value is reported as 3.85 ± 0.35. The “vaginal fungal load of mice, day 11” value in data set [7] (20 mg/kg intragastric once a day, day 11) stood at 3.31 ± 0.29.

A word on the Solubility: it is how much of the substance goes into solution per volume. A higher Solubility goes with a readily soluble substance. On to `CC[C@@H](C(C)OC(=O)OC(C)OC(=O)CCOP(=O)([O-])[O-])n1ncn(-c2ccc(N3CCN(c4ccc(OC[C@@H]5CO[C@@](Cn6cncn6)(c6ccc(F)cc6F)C5)cc4)CC3)cc2)c1=O.[Na+].[Na+]` (stereo partly shown) [ST0066], for which the responders at 20 mg/kg was determined as 80% in [5] (setting [14]); 80% in data set [5] (setting [15]); 70% in [5] (setting [16]); 70% in data set [5] (setting [17]); 70% in data set [5] (setting [18]); 60% in data set [5] (setting [19]). In data set [5] (setting [20]), the responders at 20 mg/kg was found to be 60%. Further, the half-life at 10 µM in data set [9] amounted to 40.4 ± 5.21 min; in [11], 36.6 ± 8.66 min; in data set [12], 12.6 ± 4.54 min; in data set [13], 11.3 ± 2.27 min. In data set [10], the Solubility is > 50 mg/mL.

Consider `CC[C@@H]([C@H](C)O)n1ncn(-c2ccc(N3CCN(c4ccc(OC[C@@H]5CO[C@@](Cn6c[n+](C(C)OC(=O)OP(=O)(O)O)cn6)(c6ccc(F)cc6F)C5)cc4)CC3)cc2)c1=O.[Na+].[Na+]` (stereo partly shown) [ST0039], for which the Solubility in data set [10] is > 50 mg/mL.
